Assay results published in patent publication US9187464B2, “TRPV4 antagonists” (GlaxoSmithKline Intellectual Property (No. 2) Limited, priority 2011, dated 2015).

Biological target: T1, human TRPV4 (Homo sapiens, UniProt Q9HBA0)
T1 construct: expressed in transfected cells; host or cells: HEK-293-MSR-II cells transduced with 1% BacMam virus
Assay: Ligand-gated assay (Fluo4 calcium, FLIPR; inhibition of agonist-induced activation)
Type: cell-based
Conditions: HEK-293-MSR-II cells transduced with BacMam human TRPV4; agonist at EC80
Summary of the method: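 HEK-293-MSR-II cells BacMam-transduced with human TRPV4, loaded with 2 uM Fluo-4. Compound preincubated 10 min at room temperature in HBSS pH 7.4 plus 0.01% Chaps, then agonist added at its EC80. Inhibition of agonist-evoked calcium rise read on FLIPR; IC50 reported.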

T1 sequence (Q9HBA0 whole entry): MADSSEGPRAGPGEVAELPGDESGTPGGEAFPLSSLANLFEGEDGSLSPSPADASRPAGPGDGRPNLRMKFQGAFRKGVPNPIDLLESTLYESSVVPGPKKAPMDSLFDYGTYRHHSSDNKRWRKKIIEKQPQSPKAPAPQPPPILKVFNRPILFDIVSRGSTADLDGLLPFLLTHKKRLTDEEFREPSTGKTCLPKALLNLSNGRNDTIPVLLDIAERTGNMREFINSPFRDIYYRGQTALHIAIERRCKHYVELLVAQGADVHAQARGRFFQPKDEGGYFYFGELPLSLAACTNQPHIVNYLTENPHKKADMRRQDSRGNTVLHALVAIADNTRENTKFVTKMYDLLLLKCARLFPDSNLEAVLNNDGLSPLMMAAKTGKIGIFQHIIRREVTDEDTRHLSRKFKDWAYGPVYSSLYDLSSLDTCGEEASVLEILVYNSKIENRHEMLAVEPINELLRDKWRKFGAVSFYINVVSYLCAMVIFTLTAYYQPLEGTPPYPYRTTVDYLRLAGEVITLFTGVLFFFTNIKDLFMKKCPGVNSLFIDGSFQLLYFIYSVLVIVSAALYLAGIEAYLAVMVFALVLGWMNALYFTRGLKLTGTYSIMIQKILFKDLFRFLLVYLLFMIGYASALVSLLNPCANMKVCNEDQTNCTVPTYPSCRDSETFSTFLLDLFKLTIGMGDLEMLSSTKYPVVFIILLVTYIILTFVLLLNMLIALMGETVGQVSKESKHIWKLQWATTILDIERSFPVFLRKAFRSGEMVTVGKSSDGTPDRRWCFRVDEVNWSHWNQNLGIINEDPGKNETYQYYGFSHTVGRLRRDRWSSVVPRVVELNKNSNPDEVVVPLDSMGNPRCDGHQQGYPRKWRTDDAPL

Compound	IC50
N#Cc1cc(Cl)c2ncn(C[C@H]3CCC[C@]4(C3)CN(CC3(c5nc(C6CCCC6)no5)CCOCC3)C(=O)O4)c2c1 [Example 85, 4-chloro-1-[((5S,7S)-3-{[4-(3-cyclopentyl-1,2,4-oxadiazol-5-yl)tetrahydro-2H-pyran-4-yl]methyl}-2-oxo-1-oxa-3-azaspiro[4.5]dec-7-yl)methyl]-1H-benzimidazole-6-carbonitrile]	0.0001 to 0.01 µM
N#Cc1ccc2ccn(C[C@H]3CCC[C@]4(C3)CN(Cc3csc5ccc(Cl)cc35)C(=O)O4)c2c1 (stereo in doubt) [Example 59, 1-({3-[(5-chloro-1-benzothien-3-yl)methyl]-2-oxo-1-oxa-3-azaspiro[4.5]dec-7-yl}methyl)-1H-indole-6-carbonitrile]	0.05 to 0.5 µM
N#Cc1ccc2ncn(C[C@H]3CCC[C@]4(C3)CN(CC3CCN(c5ccccn5)C3)C(=O)O4)c2c1 (stereo partly drawn) [Example 86, 1-[((5S,7S)-2-oxo-3-{[1-(2-pyridinyl)-3-pyrrolidinyl]methyl}-1-oxa-3-azaspiro[4.5]dec-7-yl)methyl]-1H-benzimidazole-6-carbonitrile]	0.05 to 0.5 µM
CC(C)(C)c1noc(N2C[C@@]3(CCC[C@H](Cn4cnc5ccc(C#N)cc54)C3)OC2=O)c1F [Example 47, 1-(((5S,7S)-3-(3-(tert-butyl)-4-fluoroisoxazol-5-yl)-2-oxo-1-oxa-3-azaspiro[4.5]decan-7-yl)methyl)-1H-benzo[d]imidazole-6-carbonitrile]	0.0001 to 0.01 µM
Cc1ccc(-n2cc(CN3C[C@@]4(CCC[C@H](Cn5cnc6ccc(C#N)cc65)C4)OC3=O)nn2)cc1 [Example 91, 1-[((5S,7S)-3-{[1-(4-methylphenyl)-1H-1,2,3-triazol-4-yl]methyl}-2-oxo-1-oxa-3-azaspiro[4.5]dec-7-yl)methyl]-1H-benzimidazole-6-carbonitrile]	0.05 to 0.5 µM
CCOc1cnc(N2C[C@@]3(CCC[C@](C)(Cn4cnc5ccc(C#N)cc54)C3)OC2=O)cn1 [Example 14, 1-(((5S,7S)-3-(5-Ethoxypyrazin-2-yl)-7-methyl-2-oxo-1-oxa-3-azaspiro[4.5]decan-7-yl)methyl)-1H-benzo[d]imidazole-6-carbonitrile]	0.0001 to 0.01 µM
CC(C)(CN1C[C@@]2(CCC[C@H](Cn3cnc4ccc(C#N)cc43)C2)OC1=O)c1nc(C2CCCC2)no1 [Example 77, 1-({(5S,7S)-3-[2-(3-cyclopentyl-1,2,4-oxadiazol-5-yl)-2-methylpropyl]-2-oxo-1-oxa-3-azaspiro[4.5]dec-7-yl}methyl)-1H-benzimidazole-6-carbonitrile]	0.0001 to 0.01 µM
CC(C)(C)n1ncc(N2C[C@@]3(CCC[C@](C)(Cn4cnc5ccc(C#N)cc54)C3)OC2=O)n1 [Example 50, 1-(((5S,7S)-3-(2-(tert-butyl)-2H-1,2,3-triazol-4-yl)-7-methyl-2-oxo-1-oxa-3-azaspiro[4.5]decan-7-yl)methyl)-1H-benzo[d]imidazole-6-carbonitrile]	0.0001 to 0.01 µM

Results, then the molecule that gave them:

IC50	Compound
0.01 to 0.05 µM	CN(C)c1ncc(N2C[C@@]3(CCC[C@](C)(Cn4cnc5ccc(C#N)cc54)C3)OC2=O)cn1 [Example 145, 1-(((5S,7S)-3-(2-(dimethylamino)pyrimidin-5-yl)-7-methyl-2-oxo-1-oxa-3-azaspiro[4.5]decan-7-yl)methyl)-1H-benzo[d]imidazole-6-carbonitrile]
0.05 to 0.5 µM	COc1ccc(N2C[C@@]3(CCC[C@](C)(Cn4cnc5ccc(C#N)cc54)C3)OC2=O)nc1 [Example 135, 1-({(5S,7S)-7-methyl-3-[5-(methyloxy)-2-pyridinyl]-2-oxo-1-oxa-3-azaspiro[4.5]dec-7-yl}methyl)-1H-benzimidazole-6-carbonitrile]
0.01 to 0.05 µM	C[C@]1(Cn2cnc3ccc(C#N)cc32)CCC[C@@]2(CN(c3ncccc3Cl)C(=O)O2)C1 [Example 137, 1-{[(5S,7S)-3-(3-chloro-2-pyridinyl)-7-methyl-2-oxo-1-oxa-3-azaspiro[4.5]dec-7-yl]methyl}-1H-benzimidazole-6-carbonitrile]
0.0001 to 0.01 µM	Cc1cnc(N2C[C@@]3(CCC[C@](C)(Cn4cnc5ccc(C#N)cc54)C3)OC2=O)c(Cl)c1 [Example 128, 1-(((5S,7S)-3-(3-chloro-5-methylpyridin-2-yl)-7-methyl-2-oxo-1-oxa-3-azaspiro[4.5]decan-7-yl)methyl)-1H-benzo[d]imidazole-6-carbonitrile]
0.0001 to 0.01 µM	CC(C)(O)c1ccc(N2C[C@@]3(CCC[C@](C)(Cn4cnc5ccc(C#N)cc54)C3)OC2=O)nc1 [Example 167, 1-(((5S,7S)-3-(5-(2-hydroxypropan-2-yl)pyridin-2-yl)-7-methyl-2-oxo-1-oxa-3-azaspiro[4.5]decan-7-yl)methyl)-1H-benzo[d]imidazole-6-carbonitrile]
